Legend:
Format in all cases: in vivo
Amaranthus retroflexus = experiment: greenhouse test, post-emergence treatment; conditions: scale from 0 to 100
Excerpt: (§1) The culture containers used were plastic flowerpots containing loamy sand with approximately 3.0% of humus as the substrate. The seeds of the test plants were sown separately for each species.
(§2) For the pre-emergence treatment, the active ingredients, which had been suspended or emulsified in water, were applied directly after sowing by means of finely distributing nozzles. The containers were irrigated gently to promote germination and growth and subsequently covered with transparent plastic hoods until the plants had rooted. This cover caused uniform germination of the test plants, unless this had been impaired by the active ingredients. For the post-emergence treatment, the test plants were first grown to a height of 3 to 15 cm, depending on the plant habit, and only then treated with the active ingredients which had been suspended or emulsified in water. For this purpose, the test plants were either sown directly and grown in the same containers, or they were first grown separately as seedlings and transplanted into the test containers a few days prior to treatment.
(§3) Depending on the species, the plants were kept at 10-25° C. or 20-35° C., respectively. The test period extended over 2 to 4 weeks. During this time, the plants were tended, and their response to the individual treatments was evaluated.
(§4) Evaluation was carried out using a scale from 0 to 100. 100 means no emergence of the plants, or complete destruction of at least the aerial moieties, and 0 means no damage, or normal course of growth. A moderate herbicidal activity is given at values of at least 60, a good herbicidal activity is given at values of at least 70, and a very good herbicidal activity is given at values of at least 85.
(§5) The plants used in the greenhouse experiments were of the following species: […]

Abutilon theophrasti = experiment: greenhouse test, post-emergence treatment; conditions: scale from 0 to 100
Excerpt: as §1, §2, §3, §4, §5

Setaria viridis [1] = experiment: greenhouse test, post-emergence treatment; conditions: 2000 g/ha, scale from 0 to 100
Excerpt: as §1, §2, §3, §4, §5

Poa annua = experiment: greenhouse test, pre-emergence treatment; conditions: scale from 0 to 100
Excerpt: as §1, §2, §3, §4, §5

Stellaria media = experiment: greenhouse test, pre-emergence treatment; conditions: scale from 0 to 100
Excerpt: as §1, §2, §3, §4, §5

Setaria faberi = experiment: greenhouse test, post-emergence treatment; conditions: 500 g/ha, scale from 0 to 100
Excerpt: as §1, §2, §3, §4, §5

Echinocloa crus-galli = experiment: greenhouse test, pre-emergence treatment; conditions: 62.5 g/ha, scale from 0 to 100
Excerpt: as §1, §2, §3, §4, §5

Polygonum convolvulus = experiment: greenhouse test, pre-emergence treatment; conditions: 62.5 g/ha, scale from 0 to 100
Excerpt: as §1, §2, §3, §4, §5

Setaria viridis [2] = experiment: greenhouse test, pre-emergence treatment; conditions: 62.5 g/ha, scale from 0 to 100
Excerpt: as §1, §2, §3, §4, §5

Cc1cccnc1Nc1nc(N)nc(C(F)(F)F)n1 [Example 34]
herbicidal activity (Amaranthus retroflexus; 2000 g/ha): very good (a very good herbicidal activity is given at values of at least 85)
herbicidal activity (Abutilon theophrasti; 2000 g/ha): very good (a very good herbicidal activity is given at values of at least 85)
herbicidal activity (Setaria viridis [1]): very good (a very good herbicidal activity is given at values of at least 85)

CC(C)(Cl)c1nc(N)nc(Nc2c(F)c(F)nc(F)c2F)n1 [Example 56]
herbicidal activity (Poa annua; 125 g/ha): very good (a very good herbicidal activity is given at values of at least 85)
herbicidal activity (Stellaria media; 125 g/ha): very good (a very good herbicidal activity is given at values of at least 85)

CC(c1nc(N)nc(Nc2c(F)c(F)nc(F)c2F)n1)C1CC1 (stereo not shown) [Example 60]
herbicidal activity (Setaria faberi): very good (a very good herbicidal activity is given at values of at least 85)
herbicidal activity (Amaranthus retroflexus; 500 g/ha): very good (a very good herbicidal activity is given at values of at least 85)
herbicidal activity (Abutilon theophrasti; 500 g/ha): very good (a very good herbicidal activity is given at values of at least 85)

CC(C)(F)c1nc(N)nc(Nc2c(F)c(F)nc(F)c2F)n1 [Example 1, 6-(1-Fluoro-1-methyl-ethyl)-N4-(2,3,5,6-tetrafluoro-4-pyridyl)-1,3,5-triazine-2,4-diamine]
herbicidal activity (Echinocloa crus-galli): very good (a very good herbicidal activity is given at values of at least 85)
herbicidal activity (Polygonum convolvulus): very good (a very good herbicidal activity is given at values of at least 85)
herbicidal activity (Setaria viridis [2]): very good (a very good herbicidal activity is given at values of at least 85)

Nc1nc(Nc2c(F)c(F)nc(F)c2F)nc(C2CCCCC2)n1 [Example 59]
herbicidal activity (Poa annua; 250 g/ha): very good (a very good herbicidal activity is given at values of at least 85)
herbicidal activity (Stellaria media; 250 g/ha): very good (a very good herbicidal activity is given at values of at least 85)

Source: US10479777B2, “Herbicidal azines” (BASF SE, priority 2013, dated 2019)
